Source: article PMC8216263 (Pharmaceutical Biology, 2021)
Where two headings read alike, the source gives them in different places.

Tests used:
[1] = rats, ref Ma et al. 2016, cited from earlier work
[2] = Urinary excretion of GA and PCA after oral RLQ in healthy subjects; assay type: in vivo, human; conditions: for fraction unbound / dose excreted: human, urine, oral, 8 g; for fraction unbound: urine within 24 h, read-out: Fu (fraction of administered dose excreted in the urine); for dose excreted: abstract summary, read-out: 24 h urine recovery rate
Procedure: In the single-dose study, 8 g of RLQ was administered orally on day 1. A 7-d washout time was designed between single-dose and multiple-dose pharmacokinetic studies. In the multiple-dose study, subjects received multiple doses of RLQ (8 g, t.i.d.) for seven consecutive days from day 8 to day 14 and a single dose of RLQ (8 g) on the morning of day 15. On days 1 and 15, blood samples (3 mL) were collected from the antecubital vein catheter before drug administration and at 0.08, 0.17, 0.33, 0.5, 0.75, 1, 1.5, 2, 3, 4, 6, 8, 12 and 24 h after dosing. Additional pre-dose samples were collected in the morning on days 12, 13 and 14. Urine samples were collected over a 12 h interval before dosing and at the following time intervals thereafter: 0–2, 2–5, 5–8, 8–12 and 12–24 h. All samples were stored at −80 °C until analysis.
(§1) All analytes were extracted from plasma and urine samples by simple protein precipitation extraction method using acetonitrile. Briefly, 5 µL of internal standard solution and 300 μL of acetonitrile were added to the spiked blank matrix (100 μL) and vortexed for 3 min and then centrifuged at 13,000 × g for 10 min. The supernatant was transferred and dried using a flow of nitrogen. The residue was re-dissolved in 100 µL of 10% methanol solution containing 0.1% formic acid. An aliquot of 5 µL solution was injected into the LC-MS/MS system for analysis.
The GA and PCA concentrations were determined using a validated LC-MS/MS method with some modifications (Ma et al. [2015]). The chromatographic separation was performed on an Acquity Ultra Performance LC instrument (Waters, Milford, MA) with a gradient programme in an ACQUITY UPLC BEH C18 column (2.1 mm × 100 mm, 1.7 μm). The gradient programme was performed with the mobile phase (0.3 mL/min) consisting of 0.1% formic acid aqueous solution (A) and acetonitrile (B) as follows: 97% A (0–8.5 min), 60% A (8.7–11 min), 10% A (11.5–13.5 min) and 97% A (14–15 min). The injection volume was 2 µL. The mass spectrometry analysis was performed on an AB Sciex Triple Quad 5500 MS (Framingham, MA) equipped with an ESI source. The quantitative analyses of GA, PCA and chloramphenicol were performed in a negative mode by multiple reaction monitoring (MRM) with the ion transitions of m/z 169.0→125.1, 153.1→109.0 and 321.1→152.1, respectively.
Pharmacokinetic parameters of GA and PCA were estimated with a non-compartmental method using Phoenix WinNonlin version 6.4 (Certara, Princeton, NJ). The peak plasma concentration (Cmax) and time to reach the peak plasma concentration (Tmax) were calculated from the actual plasma concentration data. The area under the plasma concentration-time curve from zero to the last measurable concentration (AUC0–t) was calculated via the linear trapezoidal rule. AUC0–∞ was calculated using the following formula: AUC0–∞ = AUC0–t + Ct/ke, where Ct is the last plasma concentration measured. The terminal elimination half-life (t1/2) was calculated as 0.693/ke, and the total clearance (CL/F) was calculated as dose/AUC0–∞. The accumulation index was calculated as AUCss/AUC0–t.

[3] = Single- and multiple-dose plasma pharmacokinetics of GA and PCA after oral RLQ in healthy subjects; assay type: in vivo, human; conditions: for AUC(0-inf) / AUC(0-t) / Vd/F / k el / half-life: 8 g; for Vd/F: read-out: Vz/F; for k el: read-out: ke (converted)
Procedure: The study protocol was approved by the Ethics Committee of the Second Affiliated Hospital of Tianjin University of Traditional Chinese Medicine. […] Subjects were offered standard meals at 4 and 10 h after dosing. Water was not permitted during the hour before and the hour after dosing, except for 240 mL administered with dosing; additional water intake was allowed at all other times.
In the single-dose study, 8 g of RLQ was administered orally on day 1. A 7-d washout time was designed between single-dose and multiple-dose pharmacokinetic studies. In the multiple-dose study, subjects received multiple doses of RLQ (8 g, t.i.d.) for seven consecutive days from day 8 to day 14 and a single dose of RLQ (8 g) on the morning of day 15. […] Additional pre-dose samples were collected in the morning on days 12, 13 and 14. […] All samples were stored at −80 °C until analysis.
as §1
The chromatographic separation was performed on an Acquity Ultra Performance LC instrument (Waters, Milford, MA) with a gradient programme in an ACQUITY UPLC BEH C18 column (2.1 mm × 100 mm, 1.7 μm). […] The injection volume was 2 µL. The mass spectrometry analysis was performed on an AB Sciex Triple Quad 5500 MS (Framingham, MA) equipped with an ESI source.
The peak plasma concentration (Cmax) and time to reach the peak plasma concentration (Tmax) were calculated from the actual plasma concentration data. The area under the plasma concentration-time curve from zero to the last measurable concentration (AUC0–t) was calculated via the linear trapezoidal rule. AUC0–∞ was calculated using the following formula: AUC0–∞ = AUC0–t + Ct/ke, where Ct is the last plasma concentration measured. […] The accumulation index was calculated as AUCss/AUC0–t.

[4] = both sexes, human, plasma, oral, human plasma, multiple dose RLQ 8 g
[5] = both sexes, human, plasma, oral, human plasma, multiple dose RLQ 8 g, read-out: AUC0–t
[6] = both sexes, human, plasma, oral, human plasma, single dose RLQ 8 g
[7] = both sexes, human, plasma, oral, human plasma, single dose RLQ 8 g, read-out: AUC0–t
[8] = both sexes, human, plasma, oral, multiple dose RLQ 8 g
[9] = both sexes, human, plasma, oral, multiple dose RLQ 8 g, read-out: t1/2 (converted)
[10] = both sexes, human, plasma, oral, single dose RLQ 8 g
[11] = both sexes, human, plasma, oral, single dose RLQ 8 g, read-out: t1/2 (converted)
[12] = both sexes, human, plasma, oral, single dose RLQ 8 g, median (range), read-out: tmax
[13] = both sexes, human, plasma, po, abstract summary, oral RLQ, read-out: half-life
[14] = both sexes, oral, human plasma, multiple dose RLQ 8 g t.i.d. 7 d then single dose, means ± SD, read-out: Cmax
[15] = both sexes, human plasma, single oral dose RLQ 8 g, means ± SD, read-out: Cmax
[16] = human, plasma, oral, single dose RLQ 8 g, female subjects n = 6, read-out: Cmax in women
[17] = human, plasma, oral, single dose RLQ 8 g, male subjects n = 6, read-out: Cmax in men
[18] = multiple dose RLQ 8 g, median (range)

## O=C(O)c1cc(O)c(O)c(O)c1 [GA, gallic acid]
[1]
  concentration in rat kidney tissue: 1218 ng/g
[2]; multiple dose RLQ 8 g
  fraction unbound: 0.107
[2]; single dose RLQ 8 g
  fraction unbound: ~0.086
  amount recovered in urine within 24 h: 2.48 ± 1.34 mg
[2]
  dose excreted: ~10%
[3]; abstract summary, oral RLQ
  time to absorption into the blood after administration: ≤ 1 h
[3]; [4]
  AUC(0-inf): 209 ± 63.5 ng·h/mL
[3]; [5]
  AUC(0-t): 205 ± 62.8 ng·h/mL
[3]; [6]
  AUC(0-inf): 256 ± 74.9 ng·h/mL
[3]; [7]
  AUC(0-t): 251 ± 74.4 ng·h/mL
[3]; [8]
  Vd/F: 292 ± 113 L
  k el: 0.00015 s⁻¹
[3]; [9]
  half-life: 80.4 ± 19.2 min
[3]; [10]
  Vd/F: 241 ± 82.7 L
  k el: 0.000147 s⁻¹
[3]; [11]
  half-life: 82.2 ± 22.2 min
[3]; [12]
  tmax: 45 min
[3]; [13]
  half-life: < 120 min
[3]; [14]
  Cmax: 118 ± 39.5 ng/mL
[3]; [15]
  Cmax: 139 ± 49.4 ng/mL
[3]; female, human, plasma, oral, single dose RLQ 8 g, female subjects, read-out: AUC0–t in women
  AUC(0-t): 301 ± 46.3 ng·h/mL
[3]; [16]
  Cmax: 176 ng/mL
[3]; [17]
  Cmax: 102 ng/mL
[3]; male, human, plasma, oral, single dose RLQ 8 g, male subjects, read-out: AUC0–t in men
  AUC(0-t): 201 ± 63.3 ng·h/mL
[3]; multiple dose RLQ 8 g
  CL/F: 152 ± 51.6 L/h
[3]; [18]
  tmax: 0.75 (0.75, 1) h
[3]; p < 0.05
  Vz/F and CL/F, females versus males: significantly lower levels in females than in males
[3]; single dose RLQ 8 g
  CL/F: 124 ± 42.0 L/h

## O=C(O)c1ccc(O)c(O)c1 [PCA, protocatechuic acid]
[1]; urinary excretion
  unchanged amount that survived the metabolism, % of the total intake: ~15.7%
[2]; first 2 h after administration of RLQ 8 g
  mean urinary concentration: ~150 µg/L
[2]; single dose RLQ 8 g
  fraction unbound: ~0.042
  amount recovered in urine within 24 h: 0.046 ± 0.040 mg
[2]
  dose excreted: ~5%
[3]; LC-MS/MS after oral RLQ
  response in human plasma and urine samples: relatively high response
[3]; abstract summary, oral RLQ
  time to absorption into the blood after administration: ≤ 1 h
[3]; after multiple doses, median (range)
  accumulation ratio (AUCss/AUC0–t): 1.04 (0.56–1.51)
[3]; [4]
  AUC(0-inf): 3.09 ± 0.9 ng·h/mL
[3]; [5]
  AUC(0-t): 2.81 ± 0.81 ng·h/mL
[3]; [6]
  AUC(0-inf): 3.64 ± 1.35 ng·h/mL
[3]; [7]
  AUC(0-t): 3.2 ± 1.17 ng·h/mL
[3]; [8]
  Vd/F: 139 ± 46.1 L
  k el: 0.000789 s⁻¹
[3]; [9]
  half-life: 15.6 ± 4.8 min
[3]; [10]
  Vd/F: 158 ± 101 L
  k el: 0.000672 s⁻¹
[3]; [11]
  half-life: 19.8 ± 8.4 min
[3]; [12]
  tmax: 19.8 min
[3]; [13]
  half-life: < 120 min
[3]; [14]
  Cmax: 5.45 ± 1.58 ng/mL
[3]; [15]
  Cmax: 6.06 ± 2.28 ng/mL
[3]; [16]
  Cmax: 7.58 ng/mL
[3]; [17]
  Cmax: 4.54 ng/mL
[3]; multiple dose RLQ 8 g
  CL/F: 379 ± 119 L/h
[3]; [18]
  tmax: 0.33 (0.17, 0.5) h
[3]; single dose RLQ 8 g
  CL/F: 337 ± 135 L/h
